Test results: the NIST ThermoML archive (doi:10.1021/je101012n)
Numbers after ± are expanded uncertainties.

Assay: mn = molality of the nth substance listed, in mol/kg
Conditions: 101 kPa, Liquid, Alternating current cell with electrodes

[Cl-].[Cl-].[Mg+2] [magnesium chloride] + O
electrical conductivity [S/m]
Conditions | 278.15 K | 283.15 K | 298.15 K | 308.15 K | 318.15 K | 343.15 K | 363.15 K
m1 = 0.000119 | 0.001861 ± 7e-06 | 0.002134 ± 9e-06 | 0.002989 ± 1.2e-05 | 0.003553 ± 1.4e-05 | 0.004209 ± 1.7e-05 | 0.006086 ± 2.4e-05 | 0.00764 ± 3e-05
m1 = 0.000984 | 0.01481 ± 6e-05 | 0.017 ± 0.0001 | 0.02432 ± 0.0001 | 0.02937 ± 0.00012 | 0.03478 ± 0.00014 | 0.0501 ± 0.0002 | 0.06265 ± 0.00025
m1 = 0.01137 | 0.1537 ± 0.0006 | 0.176 ± 0.0007 | 0.2503 ± 0.001 | 0.302 ± 0.0012 | 0.3534 ± 0.0014 | 0.5068 ± 0.002 | 0.6347 ± 0.0025
m1 = 0.09942 | 1.1 ± 0.0044 | 1.256 ± 0.005 | 1.772 ± 0.0071 | 2.137 ± 0.0085 | 2.515 ± 0.01 | 3.575 ± 0.014 | 4.424 ± 0.018
m1 = 0.3609 | 3.449 ± 0.014 | 3.927 ± 0.016 | 5.491 ± 0.022 | 6.606 ± 0.026 | 7.753 ± 0.031 | 10.94 ± 0.044 | 13.6 ± 0.054

O=S(=O)([O-])O.[K+] [hydrogen potassium sulfate] + O
electrical conductivity [S/m]
Conditions | 278.15 K | 283.15 K | 298.15 K | 308.15 K | 318.15 K | 343.15 K | 363.15 K
m1 = 0.000161 | 0.006027 ± 2.4e-05 | 0.006684 ± 2.7e-05 | 0.008772 ± 3.5e-05 | 0.01017 ± 4.1e-05 | 0.01154 ± 5e-05 | 0.01478 ± 6e-05 | 0.01675 ± 7e-05
m1 = 0.000981 | 0.03588 ± 0.00014 | 0.03981 ± 0.00016 | 0.05156 ± 0.00021 | 0.05895 ± 0.00024 | 0.06564 ± 0.00026 | 0.07958 ± 0.00032 | 0.0854 ± 0.00034
m1 = 0.01608 | 0.4635 ± 0.0019 | 0.5067 ± 0.002 | 0.623 ± 0.0025 | 0.6784 ± 0.0027 | 0.7238 ± 0.0029 | 0.7958 ± 0.0032 | 0.8195 ± 0.0033
m1 = 0.09815 | 2.141 ± 0.0086 | 2.318 ± 0.0093 | 2.791 ± 0.011 | 2.998 ± 0.012 | 3.157 ± 0.013 | 3.469 ± 0.014 | 3.665 ± 0.015
m1 = 0.2291 | 4.379 ± 0.018 | 4.728 ± 0.019 | 5.71 ± 0.023 | 6.137 ± 0.025 | 6.456 ± 0.026 | 7.159 ± 0.029 | 7.699 ± 0.031

O=S(=O)([O-])[O-].[K+].[K+] [potassium sulfate] + O
electrical conductivity [S/m]
Conditions | 278.15 K | 283.15 K | 298.15 K | 308.15 K | 318.15 K | 343.15 K | 363.15 K
m1 = 0.000102 | 0.001969 ± 8e-06 | 0.002257 ± 9e-06 | 0.003175 ± 1.3e-05 | 0.003884 ± 1.6e-05 | 0.004575 ± 1.8e-05 | 0.006401 ± 2.6e-05 | 0.00794 ± 3e-05
m1 = 0.00105 | 0.01881 ± 8e-05 | 0.02141 ± 9e-05 | 0.03006 ± 0.00012 | 0.03611 ± 0.00014 | 0.04268 ± 0.00017 | 0.06018 ± 0.00024 | 0.07466 ± 0.0003
m1 = 0.01061 | 0.1685 ± 0.0007 | 0.1919 ± 0.0008 | 0.2675 ± 0.0011 | 0.3216 ± 0.0013 | 0.3765 ± 0.0015 | 0.5269 ± 0.0021 | 0.6441 ± 0.0026
m1 = 0.1048 | 1.341 ± 0.0054 | 1.523 ± 0.0061 | 2.11 ± 0.0084 | 2.516 ± 0.01 | 2.94 ± 0.012 | 4.064 ± 0.016 | 4.957 ± 0.02
m1 = 0.2029 | 2.362 ± 0.0094 | 2.672 ± 0.011 | 3.705 ± 0.015 | 4.409 ± 0.018 | 5.138 ± 0.021 | 7.099 ± 0.028 | 8.722 ± 0.035
m1 = 0.4783 | 5.151 ± 0.021 | 5.78 ± 0.023 | 7.801 ± 0.031 | 9.298 ± 0.037 | 10.8 ± 0.043 | 14.91 ± 0.06 | 17.97 ± 0.072

O=[N+]([O-])[O-].O=[N+]([O-])[O-].[Cu+2] [copper dinitrate] + O
electrical conductivity [S/m]
Conditions | 278.1 K | 283.1 K | 298.15 K | 308.15 K | 318.15 K | 343.15 K | 363.15 K
m1 = 0.0001 | 0.01101 ± 4e-05 | 0.01227 ± 5e-05 | – | – | – | 0.02684 ± 0.00011 | 0.0318 ± 0.0001
m1 = 0.0011 | 0.02486 ± 0.0001 | 0.02823 ± 0.00011 | 0.0388 ± 0.0002 | 0.04633 ± 0.00019 | 0.05303 ± 0.00021 | 0.07303 ± 0.00029 | 0.08992 ± 0.00036
m1 = 0.01032 | 0.1433 ± 0.0006 | 0.1641 ± 0.0007 | 0.2308 ± 0.0009 | 0.2795 ± 0.0011 | 0.3256 ± 0.0013 | 0.4628 ± 0.0019 | 0.5792 ± 0.0023
m1 = 0.1108 | 1.207 ± 0.0048 | 1.382 ± 0.0055 | 1.935 ± 0.0077 | 2.333 ± 0.0093 | 2.746 ± 0.011 | 3.918 ± 0.016 | 4.838 ± 0.019
m1 = 0.3459 | 3.219 ± 0.013 | 3.68 ± 0.015 | 5.093 ± 0.02 | 6.092 ± 0.024 | 7.235 ± 0.029 | 10.34 ± 0.041 | 12.57 ± 0.05

[Cl-].[Cs+] [cesium chloride] + O
electrical conductivity [S/m]
Conditions | 278.15 K | 283.15 K | 298.15 K | 308.15 K | 318.15 K | 343.15 K | 363.15 K
m1 = 0.000106 | 0.001018 ± 4e-06 | 0.001151 ± 5e-06 | 0.001597 ± 6e-06 | 0.001917 ± 8e-06 | 0.002242 ± 9e-06 | 0.003135 ± 1.3e-05 | 0.004007 ± 1.6e-05
m1 = 0.00101 | 0.009529 ± 3.8e-05 | 0.01089 ± 4e-05 | 0.0151 ± 0.0001 | 0.01817 ± 7e-05 | 0.02103 ± 8e-05 | 0.0293 ± 0.0001 | 0.03658 ± 0.00015
m1 = 0.01058 | 0.09738 ± 0.00039 | 0.1107 ± 0.0004 | 0.1539 ± 0.0006 | 0.185 ± 0.0007 | 0.2142 ± 0.0009 | 0.2972 ± 0.0012 | 0.3702 ± 0.0015
m1 = 0.1009 | 0.8548 ± 0.0034 | 0.9735 ± 0.0039 | 1.346 ± 0.0054 | 1.614 ± 0.0065 | 1.859 ± 0.0074 | 2.604 ± 0.01 | 3.107 ± 0.012
m1 = 0.4763 | 3.754 ± 0.015 | 4.256 ± 0.017 | 5.762 ± 0.023 | 6.816 ± 0.027 | 7.917 ± 0.032 | 11.01 ± 0.044 | 13.23 ± 0.053
m1 = 1.09 | 8.303 ± 0.033 | 9.355 ± 0.037 | 12.29 ± 0.049 | 14.25 ± 0.057 | 16.55 ± 0.066 | 22.98 ± 0.092 | 26.87 ± 0.11

[Cl][Fe][Cl] [ferrous chloride] + O
electrical conductivity [S/m]
Conditions | 278.1 K | 283.1 K | 298.15 K | 308.15 K | 318.15 K | 343.15 K | 363.15 K
m1 = 9e-05 | 0.3365 ± 0.0013 | 0.3724 ± 0.0015 | 0.4835 ± 0.0019 | 0.5486 ± 0.0022 | 0.6142 ± 0.0025 | 0.7702 ± 0.0031 | 0.8954 ± 0.0036
m1 = 0.000726 | 0.3437 ± 0.0014 | 0.3802 ± 0.0015 | 0.494 ± 0.002 | 0.5646 ± 0.0023 | 0.635 ± 0.0025 | 0.8025 ± 0.0032 | 0.9282 ± 0.0037
m1 = 0.00908 | 0.4397 ± 0.0018 | 0.4997 ± 0.002 | 0.6568 ± 0.0026 | 0.7661 ± 0.0031 | 0.8715 ± 0.0035 | 1.148 ± 0.0046 | 1.354 ± 0.0054
m1 = 0.1169 | 1.6 ± 0.0064 | 1.807 ± 0.0072 | 2.494 ± 0.01 | 3.003 ± 0.012 | 3.516 ± 0.014 | 4.889 ± 0.02 | 5.966 ± 0.024

[Na+].[OH-] [sodium hydroxide] + O
electrical conductivity [S/m]
Conditions | 278.15 K | 283.15 K | 298.15 K | 308.15 K | 318.15 K | 343.15 K | 363.15 K
m1 = 0.001 | 0.01671 ± 7e-05 | 0.01919 ± 8e-05 | 0.02459 ± 0.0001 | 0.02833 ± 0.00011 | 0.03327 ± 0.00013 | 0.04401 ± 0.00018 | 0.05213 ± 0.00021
m1 = 0.01 | 0.1596 ± 0.0006 | 0.1793 ± 0.0007 | 0.2414 ± 0.001 | 0.2784 ± 0.0011 | 0.3201 ± 0.0013 | 0.4294 ± 0.0017 | 0.5115 ± 0.0021
m1 = 0.1 | 1.498 ± 0.006 | 1.677 ± 0.0067 | 2.251 ± 0.009 | 2.635 ± 0.011 | 3.026 ± 0.012 | 4.062 ± 0.016 | 4.861 ± 0.019
m1 = 0.5 | 6.639 ± 0.027 | 7.417 ± 0.03 | 9.875 ± 0.04 | 11.59 ± 0.046 | 13.25 ± 0.053 | 17.72 ± 0.071 | 20.63 ± 0.083
m1 = 1 | 12.13 ± 0.049 | 13.5 ± 0.054 | 18.01 ± 0.072 | 21.19 ± 0.085 | 24.38 ± 0.098 | 32.74 ± 0.13 | 36.66 ± 0.15

O=C([O-])O.[Na+] [sodium bicarbonate] + O
electrical conductivity [S/m]
Conditions | 278.15 K | 283.15 K | 298.15 K | 308.15 K | 318.15 K | 343.15 K | 363.15 K
m1 = 0.00121 | 0.006911 ± 2.8e-05 | 0.008034 ± 3.2e-05 | 0.01162 ± 5e-05 | 0.01437 ± 5.7e-05 | 0.01703 ± 7e-05 | 0.02506 ± 0.0001 | 0.03284 ± 0.00013
m1 = 0.01187 | 0.06467 ± 0.00026 | 0.07485 ± 0.0003 | 0.1086 ± 0.0004 | 0.1346 ± 0.0005 | 0.1589 ± 0.0006 | 0.234 ± 0.0009 | 0.3056 ± 0.0012
m1 = 0.1223 | 0.5728 ± 0.0023 | 0.6641 ± 0.0027 | 0.9598 ± 0.0038 | 1.177 ± 0.0047 | 1.395 ± 0.0056 | 2.044 ± 0.0082 | 2.457 ± 0.0098
m1 = 0.7226 | 2.634 ± 0.011 | 3.055 ± 0.012 | 4.383 ± 0.018 | 5.346 ± 0.021 | 6.41 ± 0.026 | 9.404 ± 0.038 | 11.39 ± 0.046
